# Data from ChEMBL document CHEMBL5226310, “Synthesis and Characterization of Novel Mono- and Bis-Guanyl Hydrazones as Potent and Selective ASIC1 Inhibitors Able to Reduce Brain Ischemic Insult” (J Med Chem, 2021).
# The source made the active and inactive calls. The calls are words filed in the database; no cut-off is given here.
# How the values were obtained:
# [1] = target: T1, Acid-sensing ion channel 1 (Mus musculus) (UniProt Q6NXK8); assay: Inhibition of mouse ASIC1a expressed in genetically engineered-CHO-K1 cells at 10 uM preincubated for 10 mins at pH 7.4 followed by cell stimulation with proton injection at pH 6.5 by electro-chromic fluorescence voltage sensor-based assay relative to control
# T1 sequence (whole entry): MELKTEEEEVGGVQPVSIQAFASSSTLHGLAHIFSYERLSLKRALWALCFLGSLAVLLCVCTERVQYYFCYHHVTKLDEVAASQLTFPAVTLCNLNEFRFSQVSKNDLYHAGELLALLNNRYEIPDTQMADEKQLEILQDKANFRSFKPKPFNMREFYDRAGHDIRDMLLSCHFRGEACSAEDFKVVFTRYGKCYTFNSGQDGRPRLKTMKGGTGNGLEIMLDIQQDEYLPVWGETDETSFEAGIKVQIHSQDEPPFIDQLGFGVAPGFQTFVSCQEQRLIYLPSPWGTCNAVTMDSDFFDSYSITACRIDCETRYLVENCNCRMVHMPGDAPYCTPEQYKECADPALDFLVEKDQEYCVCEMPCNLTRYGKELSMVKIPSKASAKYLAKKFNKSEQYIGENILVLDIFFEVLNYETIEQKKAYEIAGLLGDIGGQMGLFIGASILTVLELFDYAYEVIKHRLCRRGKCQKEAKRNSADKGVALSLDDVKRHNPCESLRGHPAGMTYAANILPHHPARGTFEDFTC
# Cortical neurone [2] = assay: Neuroprotective activity in OGD/Rx-induced E16 Wistar rat Primary cortical neurons assessed as increase in cell viability at 3.14 uM incubated for 3 hrs during OGD followed by reoxygenation with compound re-addition measured after 21 hrs by MTT assay; type: functional, cell-based; conditions: time 24.0 hrs
# [3] = target: T2, Acid-sensing ion channel 2 (Mus musculus) (UniProt Q925H0); assay: Inhibition of mouse ASIC2a expressed in genetically engineered-CHO-K1 cells at 10 uM preincubated for 10 mins at pH 7.4 followed by cell stimulation with proton injection at pH 6.5 by electro-chromic fluorescence voltage sensor-based assay relative to control
# T2 sequence (whole entry): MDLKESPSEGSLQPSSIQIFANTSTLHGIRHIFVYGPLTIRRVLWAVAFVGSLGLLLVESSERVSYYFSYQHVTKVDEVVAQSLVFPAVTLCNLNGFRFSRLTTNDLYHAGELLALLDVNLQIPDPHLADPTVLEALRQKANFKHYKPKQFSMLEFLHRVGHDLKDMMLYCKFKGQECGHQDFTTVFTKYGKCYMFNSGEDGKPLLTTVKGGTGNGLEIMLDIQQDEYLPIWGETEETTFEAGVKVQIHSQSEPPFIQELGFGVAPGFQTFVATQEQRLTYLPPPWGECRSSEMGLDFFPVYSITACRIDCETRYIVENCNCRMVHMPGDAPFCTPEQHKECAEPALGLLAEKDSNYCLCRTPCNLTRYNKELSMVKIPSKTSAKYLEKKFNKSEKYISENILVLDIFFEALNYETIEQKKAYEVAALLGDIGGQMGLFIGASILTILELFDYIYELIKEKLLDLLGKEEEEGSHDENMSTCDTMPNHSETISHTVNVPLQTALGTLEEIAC
# Cortical neurone [4] = assay: Neuroprotective activity in OGD/Rx-induced E16 Wistar rat Primary cortical neurons assessed as increase in cell viability at 3.14 uM incubated for 3 hrs during OGD followed by compound removal and reoxygenation measured after 21 hrs by MTT assay; type: functional, cell-based
# [5] = target: T3, Acid-sensing ion channel 1 (Homo sapiens, UniProt P78348); assay: Inhibition of human ASIC1a in HEK293 cells assessed as inward proton-gated current at pH 6.0 incubated with compound followed by PcTx1 addition by patch-clamp electrophysiology; type: cell-based
# T3 sequence (P78348 whole entry): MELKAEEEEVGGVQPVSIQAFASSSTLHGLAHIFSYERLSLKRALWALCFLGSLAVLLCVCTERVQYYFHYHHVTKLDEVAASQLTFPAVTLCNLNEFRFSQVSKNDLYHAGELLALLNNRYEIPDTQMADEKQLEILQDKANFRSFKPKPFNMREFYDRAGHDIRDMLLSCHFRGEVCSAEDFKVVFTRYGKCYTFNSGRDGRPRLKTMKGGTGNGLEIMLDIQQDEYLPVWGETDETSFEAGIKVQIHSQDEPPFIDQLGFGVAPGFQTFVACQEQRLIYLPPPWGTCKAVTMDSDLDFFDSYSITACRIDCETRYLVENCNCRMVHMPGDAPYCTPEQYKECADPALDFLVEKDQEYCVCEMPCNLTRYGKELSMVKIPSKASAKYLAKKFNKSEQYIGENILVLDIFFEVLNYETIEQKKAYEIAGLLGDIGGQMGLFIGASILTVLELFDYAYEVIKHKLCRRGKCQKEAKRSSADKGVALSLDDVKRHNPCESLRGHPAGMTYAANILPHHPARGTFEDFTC
# Mus musculus [6] = assay: Neuroprotective activity in mouse model of middle cerebral artery occlusion-induced transient brain ischemia assessed as reduction in general neurological deficits at 0.65 mg/kg, ip administered thrice measured after 24 hrs; type: functional, organism-based
# Cortical neurone [7] = assay: Neuroprotective activity in OGD/Rx-induced E16 Wistar rat Primary cortical neurons assessed as increase in cell viability at 0.4 uM incubated for 3 hrs during OGD followed by reoxygenation with compound re-addition measured after 21 hrs by MTT assay; type: functional, cell-based; conditions: time 24.0 hrs
# Cortical neurone [8] = assay: Neuroprotective activity in OGD/Rx-induced E16 Wistar rat Primary cortical neurons assessed as increase in cell viability at 0.4 uM incubated for 3 hrs during OGD followed by compound removal and reoxygenation measured after 21 hrs by MTT assay; type: functional, cell-based
# Mus musculus [9] = assay: Neuroprotective activity in mouse model of middle cerebral artery occlusion-induced transient brain ischemia assessed as reduction in ischemic volume at 0.65 mg/kg, ip administered thrice measured upto 72 hrs relative to control; type: functional; design: scale not given: the % may be the effect or the level left
# Mus musculus [10] = assay: Neuroprotective activity in mouse model of middle cerebral artery occlusion-induced transient brain ischemia assessed as reduction in general neurological deficits at 0.65 mg/kg, ip administered thrice measured upto 72 hrs; type: functional, organism-based
# Cortical neurone [11] = assay: Neuroprotective activity in OGD/Rx-induced E16 Wistar rat Primary cortical neurons assessed as increase in cell viability incubated for 3 hrs during OGD followed by reoxygenation with compound re-addition measured after 21 hrs by MTT assay; type: functional, cell-based; conditions: time 24.0 hrs
# [12] = target: T4, Acid-sensing ion channel 1 (Homo sapiens) (UniProt P78348); assay: Inhibition of ASIC1a in acid stimulated-human Neural Progenitor Cells assessed as reduction in current amplitude at pH 6.5 at 10 uM measured for 5 mins with acid stimulation for every 2 mins by electrophysiology relative to control; type: cell-based; conditions: Neural Progenitor Cell
# T4 sequence (whole entry): T3 sequence (P78348 whole entry)
# Mus musculus [13] = assay: Neuroprotective activity in mouse model of middle cerebral artery occlusion-induced transient brain ischemia assessed as decrease in ischemic volume at 0.65 mg/kg, ip administered thrice measured after 24 hrs (reference value: 58 +/- 2.6 %); type: functional; design: scale not given: the % may be the effect or the level left
# Mus musculus [14] = assay: Neuroprotective activity in mouse model of middle cerebral artery occlusion-induced transient brain ischemia assessed as ischemic volume at 0.65 mg/kg, ip administered thrice measured after 24 hrs relative to control; type: functional
# Mus musculus [15] = assay: Neuroprotective activity in mouse model of middle cerebral artery occlusion-induced transient brain ischemia assessed as ischemic volume at 6.5 mg/kg, ip administered thrice measured after 24 hrs relative to control; type: functional
# Mus musculus [16] = assay: Neuroprotective activity in mouse model of middle cerebral artery occlusion-induced transient brain ischemia assessed as reduction in focal neurological deficits at 0.65 mg/kg, ip administered thrice measured after 24 hrs; type: functional, organism-based
# [17] = target: T4, Acid-sensing ion channel 1 (Homo sapiens); assay: Inhibition of ASIC1a in acid stimulated-human Neural Progenitor Cells assessed as reduction in current amplitude at pH 6.5 at 10 uM measured for 5 mins with acid stimulation for every 2 mins by electrophysiology (reference value: 92.41 +/- 33.66 pA); type: cell-based; conditions: Neural Progenitor Cell
# Mus musculus [18] = assay: Neuroprotective activity in mouse model of middle cerebral artery occlusion-induced transient brain ischemia assessed as reduction in focal neurological deficits at 0.65 mg/kg, ip administered thrice measured upto 72 hrs; type: functional, organism-based
# Cortical neurone [19] = assay: Neuroprotective activity in OGD/Rx-induced E16 Wistar rat Primary cortical neurons assessed as increase in cell viability at 0.38 uM incubated for 3 hrs during OGD followed by reoxygenation with compound re-addition measured after 21 hrs by MTT assay; type: functional, cell-based; conditions: time 24.0 hrs
# Mus musculus [20] = assay: Neuroprotective activity in mouse model of middle cerebral artery occlusion-induced transient brain ischemia assessed as reduction in neurological deficits at 0.8 mg/kg, ip administered thrice measured after 24 hrs; type: functional, organism-based
# Mus musculus [21] = assay: Neuroprotective activity in mouse model of middle cerebral artery occlusion-induced transient brain ischemia assessed as decrease in ischemic volume at 0.8 mg/kg, ip administered thrice measured after 24 hrs (reference value: 58 +/- 2.6 %); type: functional; design: scale not given: the % may be the effect or the level left
# Cortical neurone [22] = assay: Neuroprotective activity in OGD/Rx-induced E16 Wistar rat Primary cortical neurons assessed as increase in cell viability at 1.9 uM incubated for 3 hrs during OGD followed by reoxygenation with compound re-addition measured after 21 hrs by MTT assay; type: functional, cell-based; conditions: time 24.0 hrs
# Cortical neurone [23] = assay: Neuroprotective activity in OGD/Rx-induced E16 Wistar rat Primary cortical neurons assessed as increase in cell viability at 1.4 uM incubated for 3 hrs during OGD followed by compound removal and reoxygenation measured after 21 hrs by MTT assay; type: functional, cell-based
# Cortical neurone [24] = assay: Neuroprotective activity in OGD/Rx-induced E16 Wistar rat Primary cortical neurons assessed as increase in cell viability at 1.41 uM incubated for 3 hrs during OGD followed by reoxygenation with compound re-addition measured after 21 hrs by MTT assay; type: functional, cell-based; conditions: time 24.0 hrs
# Cortical neurone [25] = assay: Neuroprotective activity in OGD/Rx-induced E16 Wistar rat Primary cortical neurons assessed as increase in cell viability at 0.52 uM incubated for 3 hrs during OGD followed by reoxygenation with compound re-addition measured after 21 hrs by MTT assay; type: functional, cell-based; conditions: time 24.0 hrs
structure (smiles),measurement,setting,value
Cn1nc(-c2ccc(F)cc2)cc1-c1ccc(/C=N/NC(=N)N)cc1,inhibition,[1],16.8%
same,Activity,Cortical neurone [2],Active
same,inhibition,[3],96.6%
same,Activity,Cortical neurone [4],Active
same,IC50,[5],3140 nM
Cl.N=C(N)N/N=C\c1ccc(-c2cccc(-c3ccc(/C=N/NC(=N)N)cc3)c2)cc1,inhibition,[1],53%
same,Activity,Mus musculus [6],Active
same,Activity,Cortical neurone [7],Active
same,Activity,Cortical neurone [8],Active
same,Activity,Mus musculus [9],35.3%
same,Activity,Mus musculus [10],Active
same,Activity,Cortical neurone [11],Dose-Dependent Effect
same,inhibition,[3],35.4%
same,inhibition,[12],70%
same,Activity,Mus musculus [13],34.7%
same,Activity,Mus musculus [14],47.1%
same,IC50,[5],407 nM
same,Activity,Mus musculus [15],50.1%
same,Activity,Mus musculus [16],Active
same,Activity,[17],9.37 pA
same,Activity,Mus musculus [18],Active
Cl.Cl.N=C(N)N/N=C\c1ccc(-c2cc(-c3ccc(/C=N\NC(=N)N)cc3)[nH]n2)cc1,inhibition,[1],9.09%
same,Activity,Cortical neurone [19],Active
same,Activity,Mus musculus [20],Active
same,Activity,Mus musculus [21],40.9%
same,inhibition,[3],61.3%
same,IC50,[5],729 nM
COc1ccc(Cn2nc(-c3ccc(F)cc3)cc2-c2ccc(/C=N/NC(=N)N)cc2)cc1,inhibition,[3],40.3%
same,IC50,[5],1990 nM
same,Activity,Cortical neurone [22],Active
Cn1nc(-c2ccc(/C=N/NC(=N)N)cc2)cc1-c1ccc(/C=N/NC(=N)N)cc1,inhibition,[1],33.1%
same,Activity,Cortical neurone [23],Active
same,inhibition,[3],43.9%
same,IC50,[5],1420 nM
same,Activity,Cortical neurone [24],Active
COc1ccc(Cn2nc(-c3ccc(/C=N/NC(=N)N)cc3)cc2-c2ccc(/C=N/NC(=N)N)cc2)cc1,inhibition,[1],72.9%
same,Activity,Cortical neurone [25],Active
same,inhibition,[3],69.7%
same,IC50,[5],518 nM
